According to patent US20090074672A1, “Tumor Boundary Imaging” (SRI International, priority 2007, published 2009):
Where no end group is shown, it is not given here.

Test system: fibrin gel
Experiment: TG substrate viability: cross-linking into fibrin gel
Format: biochemical
Settings: in the presence of Ca2+
Experimental: TG Substrate Viability Assays. Viability was tested by: (1) cross-linking into fibrin gel, and (2) reacting with fibrinogen in the presence of Guinea pig liver TG. […] In the presence of Ca2+, cross-linked fibrin clots were formed.

## peptide: TG substrate peptide NQEQVSP (SEQ ID NO:01) conjugated to FITC or HiLyte Fluor 750 via N-hydroxysuccinimide chemistry (also: FITC or HiLyte Fluor 750 conjugated via NHS chemistry)
  cross-linking into fibrin clot (fluorescence intensity): crosslinked into the fibrin clot
